Results published in the supplement of paper PMC10307832.

What was measured:
Assay in all cases: relative viability (nuclei count vs DMSO), 5 days (fraction); higher = more cells survive
[1] = compound: C1=CC2=NC=CN=C2C=C1/C=C/3\C(=O)NC(=O)S3 + C[C@@H](Oc1cc(-c2cnn(C3CCNCC3)c2)cnc1N)c1c(Cl)ccc(F)c1Cl [Crizotinib] (partner 1 µM)
Summary of the method: (§1)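 Relative viability is defined as nuclei in treated wells over nuclei in vehicle wells. Duplicate plates were run and medians reported. Lung cancer cell lines in 1536-well plates were dosed by pin tool one day after seeding, with one drug or with a fixed anchor-drug dose plus five library-drug doses (not always all listed) in √10 steps, and nuclei were counted after 5 days.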

BGJ398 + Dasatinib = compound: CCN1CCN(c2ccc(Nc3cc(N(C)C(=O)Nc4c(Cl)c(OC)cc(OC)c4Cl)ncn3)cc2)CC1 [BGJ398] + Cc1nc(Nc2ncc(C(=O)Nc3c(C)cccc3Cl)s2)cc(N2CCN(CCO)CC2)n1 [Dasatinib] (partner 0.075 µM)
Summary of the method: as §1

BGJ398 + Luminespib = compound: CCN1CCN(c2ccc(Nc3cc(N(C)C(=O)Nc4c(Cl)c(OC)cc(OC)c4Cl)ncn3)cc2)CC1 [BGJ398] + CCNC(=O)c1noc(-c2cc(C(C)C)c(O)cc2O)c1-c1ccc(CN2CCOCC2)cc1 [Luminespib] (partner 0.01 µM)
Summary of the method: as §1

BGJ398 + Navitoclax = compound: CCN1CCN(c2ccc(Nc3cc(N(C)C(=O)Nc4c(Cl)c(OC)cc(OC)c4Cl)ncn3)cc2)CC1 [BGJ398] + CC1(C)CCC(c2ccc(Cl)cc2)=C(CN2CCN(c3ccc(C(=O)NS(=O)(=O)c4ccc(N[C@H](CCN5CCOCC5)CSc5ccccc5)c(S(=O)(=O)C(F)(F)F)c4)cc3)CC2)C1 [Navitoclax] (partner 0.5 µM)
Summary of the method: as §1

Row | Cell Line | relative viability ([1]; first compound 0.02 µM) | relative viability ([1]; first compound 0.06325 µM) | relative viability ([1]; first compound 0.2 µM) | relative viability ([1]; first compound 0.6325 µM) | relative viability ([1]; first compound 2 µM) | relative viability (BGJ398 + Dasatinib; first compound 0.01 µM) | relative viability (BGJ398 + Dasatinib; first compound 0.1 µM) | relative viability (BGJ398 + Dasatinib; first compound 0.3162 µM) | relative viability (BGJ398 + Dasatinib; first compound 1 µM) | relative viability (BGJ398 + Luminespib; first compound 0.01 µM) | relative viability (BGJ398 + Luminespib; first compound 0.1 µM) | relative viability (BGJ398 + Luminespib; first compound 0.3162 µM) | relative viability (BGJ398 + Luminespib; first compound 1 µM) | relative viability (BGJ398 + Navitoclax; first compound 0.01 µM) | relative viability (BGJ398 + Navitoclax; first compound 0.03162 µM) | relative viability (BGJ398 + Navitoclax; first compound 0.1 µM) | relative viability (BGJ398 + Navitoclax; first compound 0.3162 µM) | relative viability (BGJ398 + Navitoclax; first compound 1 µM) | relative viability (BGJ398 + Dasatinib; first compound 0.03162 µM) | relative viability (BGJ398 + Luminespib; first compound 0.03162 µM)
1 | LOU-NH91 | 0.717 | 0.761 | 0.745 | 0.755 | 0.72 | 0.522 | 0.59 | 0.459 | 0.522 | 0.34 | 0.327 | 0.312 | 0.301 | 0.685 | 0.402 | 0.668 | 0.427 | 0.701 |  | 
2 | LU99A | 0.613 | 0.597 | 0.564 | 0.415 | 0.431 | 0.569 | 0.518 | 0.321 | 0.409 | 0.205 | 0.225 | 0.243 | 0.254 | 0.769 | 0.755 | 0.696 | 0.724 | 0.512 | 0.487 | 0.248
3 | LXF-289 | 0.766 | 0.735 | 0.785 | 0.777 | 0.858 | 0.194 | 0.184 | 0.254 | 0.156 | 0.668 | 0.578 | 0.634 | 0.657 | 0.933 | 0.905 | 0.892 | 0.873 | 0.831 | 0.218 | 0.643
4 | NCI-H23 | 0.49 | 0.629 | 0.498 | 0.555 | 0.351 | 0.776 | 0.844 | 0.792 | 0.748 | 0.228 | 0.203 | 0.22 | 0.189 | 0.874 | 0.765 | 0.848 | 0.896 | 0.865 | 0.834 | 0.213
5 | NCI-H322M | 0.858 | 0.778 | 1.1 | 0.823 | 0.943 | 0.268 | 0.227 | 0.262 | 0.236 | 0.887 | 0.848 | 0.788 | 0.85 | 1.23 | 1.26 | 1.05 | 1.2 | 1.31 | 0.227 | 0.744
6 | NCI-H441 | 0.577 | 0.716 | 0.698 | 0.827 | 0.644 | 0.577 | 0.542 | 0.672 | 0.607 | 0.453 | 0.318 | 0.383 | 0.371 | 0.577 | 0.795 | 0.501 | 0.604 | 0.722 | 0.83 | 0.346
7 | NCI-H460 | 0.783 | 1.22 | 0.959 | 0.831 | 0.853 | 0.479 | 0.46 | 0.522 | 0.498 | 0.0344 | 0.0281 | 0.0308 | 0.0303 | 1.01 | 1.11 | 1.4 | 1.12 | 1.33 | 0.523 | 0.0414
8 | NCI-H520 | 0.721 | 1.01 | 0.713 | 0.785 | 0.756 | 0.138 | 0.138 | 0.142 | 0.146 | 0.205 | 0.234 | 0.205 | 0.203 | 1.11 | 1.04 | 0.833 | 0.633 | 0.547 | 0.177 | 0.235
9 | NCI-H596 | 0.976 | 0.87 | 1.06 | 0.989 | 1 | 0.515 | 0.576 | 0.506 | 0.474 | 1.07 | 0.95 | 0.795 | 0.768 | 0.96 | 0.645 | 0.698 | 0.73 | 0.614 | 0.49 | 1.01
10 | NCI-H647 | 0.989 | 1.77 | 1.19 | 1.03 | 1 | 0.164 | 0.178 | 0.178 | 0.0946 | 0.138 | 0.157 | 0.184 | 0.176 | 0.97 | 1.26 | 1.4 | 1.14 | 1.01 | 0.188 | 0.107
11 | NCI-H727 | 0.768 | 0.842 | 0.75 | 0.794 | 0.517 | 0.462 | 0.316 | 0.384 | 0.447 | 0.365 | 0.367 | 0.345 | 0.314 | 0.487 | 0.485 | 0.337 | 0.547 | 0.453 | 0.337 | 0.467
12 | NCI-H838 | 0.778 | 1.12 | 0.737 | 0.751 | 0.823 | 0.278 | 0.28 | 0.257 | 0.225 | 0.299 | 0.272 | 0.253 | 0.234 | 1.08 | 1.11 | 1.03 | 0.907 | 0.917 | 0.337 | 0.302
13 | NCI-H1355 | 0.865 | 1.03 | 1.1 | 1.02 | 0.976 | 0.658 | 0.74 | 0.735 | 0.507 | 0.683 | 0.793 | 0.735 | 0.696 | 0.955 | 0.92 | 0.996 | 0.914 | 0.825 | 0.713 | 0.705
14 | NCI-H1437 | 0.829 | 0.901 | 0.805 | 0.917 | 1.02 | 0.484 | 0.373 | 0.42 | 0.424 | 1.18 | 1.05 | 1.12 | 1.11 | 1.1 | 1.12 | 1.07 | 1.08 | 1.06 | 0.444 | 1.19
15 | NCI-H1650 | 0.91 | 1.19 | 0.974 | 0.966 | 1.22 | 0.31 | 0.205 | 0.163 | 0.17 | 0.195 | 0.196 | 0.205 | 0.197 | 0.859 | 1.04 | 0.649 | 0.699 | 0.817 |  | 
16 | NCI-H1651 | 0.886 | 0.677 | 0.865 | 0.825 | 0.842 | 0.48 | 0.482 | 0.256 | 0.333 | 0.989 | 0.9 | 0.949 | 0.773 | 0.988 | 1.18 | 0.978 | 0.961 | 0.991 | 0.416 | 0.811
